SMILES strings stand for the structures.

In the test the target is human Cat S (Homo sapiens, UniProt P25774). Briefly: Cathepsin enzyme inhibition assay (fluorogenic peptide substrate cleavage). In kind it is biochemical. The settings on record: human Cat S 1 nM; substrate Z-Val-Val-Arg-AMC 20 μM; pH 6.5; fluorescence over 20 minutes. Put shortly: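 Fluorogenic cleavage of Z-Val-Val-Arg-AMC (20 μM) by 1 nM enzyme in 100 mM potassium phosphate pH 6.5, 5 mM EDTA, 5 mM DTT, 0.001% Triton X-100. Reaction started with substrate; fluorescence (ex 360/em 465 nm) followed over 20 minutes. IC50 by standard methods.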
human Cat S, sequence (P25774 115-331): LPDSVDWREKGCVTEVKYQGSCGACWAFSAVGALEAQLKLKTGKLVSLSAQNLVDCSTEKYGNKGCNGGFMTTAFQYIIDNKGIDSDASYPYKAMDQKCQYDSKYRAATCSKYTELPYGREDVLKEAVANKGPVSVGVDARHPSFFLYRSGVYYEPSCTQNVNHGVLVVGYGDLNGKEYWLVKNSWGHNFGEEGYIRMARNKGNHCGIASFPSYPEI
Turning to `N#CCNC(=O)[C@@H]1C[C@@H](S(=O)(=O)c2ccc(F)cc2F)C[C@H]1C(=O)N1CCOCC1` [Example 6, (1R,2R,4R)-4-(2,4-Difluoro-benzenesulfonyl)-2-(morpholine-4-carbonyl)-cyclopentanecarboxylic acid cyanomethyl-amide], it took 0.8 nM to reach half-maximal inhibition (IC50).

As for `Cc1cc(Cl)ccc1S(=O)(=O)[C@@H]1C[C@@H](C(=O)NC(C#N)c2ccccc2)[C@H](C(=O)N2CCOCC2)C1` (stereo partly drawn) [Example 31, (1R,2R,4R)-4-(4-Chloro-2-methyl-benzenesulfonyl)-2-(morpholine-4-carbonyl)-cyclopentanecarboxylic acid (cyano-phenyl-methyl)-amide], the half-inhibitory concentration (IC50) (commonly the point on the concentration scale where inhibition reaches its midpoint) turned out to be 0.2 nM. The value for `Cn1cc(-c2ccc(S(=O)(=O)[C@@H]3C[C@@H](C(=O)NC4(C#N)CC4)[C@H](C(=O)N4CCC(F)(F)C4)C3)c(Cl)c2)cn1` [Example 197, (1R,2R,4R)-4-[2-Chloro-4-(1-methyl-1H-pyrazol-4-yl)-benzenesulfonyl]-2-(3,3-difluoro-pyrrolidine-1-carbonyl)-cyclopentanecarboxylic acid (1-cyano-cyclopropyl)-amide] was 0.14 nM; that for `CO[C@@H]1C[C@H](S(=O)(=O)c2ccc(F)cc2Cl)C[C@H]1C(=O)NC1(C#N)CC1` (racemic) [Example 56, (1R,2R,4R) and (1S,2S,4S)-4-(2-Chloro-4-fluoro-benzenesulfonyl)-2-methoxy-cyclopentanecarboxylic acid (1-cyano-cyclopropyl)-amide] was 24.8 nM. The value for `CO[C@@H]1C[C@H](S(=O)(=O)c2ccccc2C(F)(F)F)C[C@H]1C(=O)NCC#N` (racemic) [Example 47, (1R,2R,4R) and (1S,2S,4S)-2-Methoxy-4-(2-trifluoromethyl-benzenesulfonyl)-cyclopentanecarboxylic acid cyanomethyl-amide] was 7.8 nM; that for `N#CC1(NC(=O)[C@@H]2C[C@@H](S(=O)(=O)c3ccc(F)cc3Cl)C[C@H]2CF)CC1` [Example 157, (1R,2R,4R)-4-(2-Chloro-4-fluoro-benzenesulfonyl)-2-fluoromethyl-cyclopentanecarboxylic acid (1-cyano-cyclopropyl)-amide] was 61.5 nM; that for `N#CC1(NC(=O)[C@H]2CC[C@H](S(=O)(=O)c3ccc(-n4cccn4)cc3Cl)C2)CC1` (single isomer, unassigned) [Example 100] was 170 nM. The value for `Cc1cc(-c2ccc(S(=O)(=O)[C@H]3C[C@@H](OC4CCCC4)[C@H](C(=O)NC4(C#N)CC4)C3)c(C(F)(F)F)c2)ccn1` (racemic) [Example 212, (1R,2R,4R) and (1S,2S,4S)-2-Cyclopentyloxy-4-[4-(2-methyl-pyridin-4-yl)-2-trifluoromethyl-benzenesulfonyl]-cyclopentanecarboxylic acid (1-cyano-cyclopropyl)-amide] was 0.215 nM; that for `CO[C@@H]1C[C@H](S(=O)(=O)c2ccc(-c3ccc(F)cc3)cc2C(F)(F)F)C[C@H]1C(=O)NC1(C#N)CC1` (racemic) [Example 63, (1R,2R,4R) and (1S,2S,4S)-4-(4′-Fluoro-3-trifluoromethyl-biphenyl-4-sulfonyl)-2-methoxy-cyclopentanecarboxylic acid (1-cyano-cyclopropyl)-amide] was 1.3 nM. Turning to `Cn1nccc1-c1cccc(S(=O)(=O)[C@@H]2C[C@@H](C(=O)NC3(C#N)CC3)[C@H](C(=O)N3CCC(F)(F)C3)C2)c1` [Example 201, (1R,2R,4R)-2-(3,3-Difluoro-pyrrolidine-1-carbonyl)-4-[3-(2-methyl-2H-pyrazol-3-yl)-benzenesulfonyl]-cyclopentanecarboxylic acid (1-cyano-cyclopropyl)-amide], half-maximal inhibition (IC50) required 0.34 nM. This IC50 is about 3.8-fold lower than that of the compound before. The value for `N#CC1(NC(=O)[C@@H]2C[C@@H](S(=O)(=O)c3ccccc3Cl)C[C@H]2OCc2ccc(Cl)cc2F)CC1` (racemic) [Example 252, (1R,2R,4R) and (1S,2S,4S)-4-(2-Chloro-benzenesulfonyl)-2-(4-chloro-2-fluoro-benzyloxy)-cyclopentanecarboxylic acid (1-cyano-cyclopropyl)-amide] was 4.99 nM; that for `C[C@@H]1CN(C(=O)[C@@H]2C[C@H](S(=O)(=O)c3ccccc3)C[C@H]2C(=O)NC2(C#N)CC2)C[C@H](C)O1` [Example 16, (1R,2R,4R)-4-Benzenesulfonyl-2-((2S,6R)-2,6-dimethyl-morpholine-4-carbonyl)-cyclopentanecarboxylic acid (1-cyano-cyclopropyl)-amide] was 0.4 nM. To `CC(C)CS(=O)(=O)[C@@H]1C[C@@H](C(=O)NCC#N)[C@H](C(=O)N2CCOCC2)C1` [Example 39, (1R,2R,4R)-4-(2-Methyl-propane-1-sulfonyl)-2-(morpholine-4-carbonyl)-cyclopentanecarboxylic acid cyanomethyl-amide] belongs 445 nM; to `Cn1cc(-c2cccc(S(=O)(=O)[C@@H]3C[C@@H](C(=O)NC4(C#N)CC4)[C@H](C(=O)N4CCC(F)(F)C4)C3)c2)cn1` [Example 202, (1R,2R,4R)-2-(3,3-Difluoro-pyrrolidine-1-carbonyl)-4-[3-(1-methyl-1H-pyrazol-4-yl)-benzenesulfonyl]-cyclopentanecarboxylic acid (1-cyano-cyclopropyl)-amide], 0.38 nM.

For the compound `N#CC1(NC(=O)[C@@H]2C[C@@H](S(=O)(=O)c3ccccc3Cl)C[C@H]2COc2ccc(Cl)cc2)CC1` (single isomer, unassigned) [Example 70], half-maximal inhibition (IC50) required 3.4 nM. To `CCN1CCN(c2ccc(S(=O)(=O)[C@H]3CC[C@H](C(=O)NC4(C#N)CC4)C3)c(Cl)c2)CC1` (racemic) [Example 97, (1S,3S) and (1R,3R)-3-[2-chloro-4-(4-ethyl-piperazin-1-yl)-benzenesulfonyl]-cyclopentanecarboxylic acid (1-cyano-cyclopropyl)-amide] belongs 157 nM; to `Cc1cc(Cl)ccc1S(=O)(=O)[C@@H]1C[C@@H](C(=O)NCC#N)[C@H](C(=O)N2C[C@@H](C)O[C@@H](C)C2)C1` [Example 32, (1R,2R,4R)-4-(4-Chloro-2-methyl-benzenesulfonyl)-2-((2S,6R)-2,6-dimethyl-morpholine-4-carbonyl)-cyclopentanecarboxylic acid cyanomethyl-amide], 0.4 nM. `CC(C)O[C@@H]1C[C@H](S(=O)(=O)c2ccc(-c3cnn(C)c3)cc2C(F)(F)F)C[C@H]1C(=O)NC1(C#N)CC1` (racemic) [Example 142, (1R,2R,4R) and (1S,2S,4S)-2-Isopropoxy-4-[4-(1-methyl-1H-pyrazol-4-yl)-2-trifluoromethyl-benzenesulfonyl]-cyclopentanecarboxylic acid (1-cyano-cyclopropyl)-amide] yielded an IC50 of 0.2 nM. Compared with the last compound, the IC50 is about 2-fold lower. In turn, `CO[C@@H]1C[C@H](S(=O)(=O)c2ccc(-c3ccc(S(N)(=O)=O)cc3)cc2C(F)(F)F)C[C@H]1C(=O)NC1(C#N)CC1` (racemic) [Example 76, (1R,2R,4R) and (1S,2S,4S)-2-Methoxy-4-(4′-sulfamoyl-3-trifluoromethyl-biphenyl-4-sulfonyl)-cyclopentanecarboxylic acid (1-cyano-cyclopropyl)-amide] displayed an IC50 of 0.6 nM.

The compound `N#CC1(NC(=O)[C@@H]2C[C@@H](S(=O)(=O)c3cccc(Br)c3)C[C@H]2C(=O)N2CCC(F)(F)C2)CC1` [Example 188, (1R,2R,4R)-4-(3-Bromo-benzenesulfonyl)-2-(3,3-difluoro-pyrrolidine-1-carbonyl)-cyclopentanecarboxylic acid (1-cyano-cyclopropyl)-amide] had an IC50 of 0.985 nM. This IC50 lies about 1.6-fold higher than the previous one. To `COc1ccc(COC[C@@H]2C[C@H](S(=O)(=O)c3ccc(F)cc3Cl)C[C@H]2C(=O)NC2(C#N)CC2)cc1` [Example 153, (1R,2R,4S)-4-(2-Chloro-4-fluoro-benzenesulfonyl)-2-(4-methoxy-benzyloxymethyl)-cyclopentanecarboxylic acid (1-cyano-cyclopropyl)-amide] belongs 25.5 nM. To `CC(C)N1CCN(c2ccc(S(=O)(=O)[C@H]3C[C@@H](OC4CCCC4)[C@H](C(=O)NC4(C#N)CC4)C3)c(C(F)(F)F)c2)CC1` (racemic) [Example 229, (1R,2R,4R) and (1S,2S,4S)-2-Cyclopentyloxy-4-[4-(4-isopropyl-piperazin-1-yl)-2-trifluoromethyl-benzenesulfonyl]-cyclopentanecarboxylic acid (1-cyano-cyclopropyl)-amide] belongs 0.007 nM; to `Cc1ccc(S(=O)(=O)[C@@H]2C[C@@H](C(=O)NC3(C#N)CC3)[C@H](C(=O)N3CCC(F)(F)C3)C2)c(Cl)c1` [Example 200, (1R,2R,4R)-4-(2-Chloro-4-methyl-benzenesulfonyl)-2-(3,3-difluoro-pyrrolidine-1-carbonyl)-cyclopentanecarboxylic acid (1-cyano-cyclopropyl)-amide], 0.445 nM.

As to `COCCOc1ccc(S(=O)(=O)[C@@H]2C[C@@H](C(=O)NC3(C#N)CC3)[C@H](C(=O)N3CC(F)(F)C3)C2)c(Cl)c1` [Example 168, (1R,2R,4R)-4-[2-Chloro-4-(2-methoxy-ethoxy)-benzenesulfonyl]-2-(3,3-difluoro-azetidine-1-carbonyl)-cyclopentanecarboxylic acid (1-cyano-cyclopropyl)-amide], the IC50 stood at 1.27 nM. The value for `Cn1cc(-c2ccc(S(=O)(=O)[C@H]3C[C@@H](OC4CCCC4)[C@H](C(=O)NC4(C#N)CC4)C3)c(C(F)(F)F)c2)cn1` (racemic) [Example 213, (1R,2R,4R) and (1S,2S,4S)-2-Cyclopentyloxy-4-[4-(1-methyl-1H-pyrazol-4-yl)-2-trifluoromethyl-benzenesulfonyl]-cyclopentanecarboxylic acid (1-cyano-cyclopropyl)-amide] was 0.16 nM.
